Test results: ChEMBL document CHEMBL2417379, “Anti-inflammatory and anti-apoptotic effects of (RS)-glucoraphanin bioactivated with myrosinase in murine sub-acute and acute MPTP-induced Parkinson's disease” (Bioorg Med Chem, 2013)
Calls of active or inactive are those of the source. The rule behind the calls is not given here.

How the values were obtained:
[1] = tested on: Mus musculus; assay: Neuroprotective activity in C57BL/6 mouse sub-acute MPTP-induced parkinson's disease model assessed as increase in GAP-43 expression in brain at 10 mg/kg, ip administered for 1 week prior to MPTP challenge by immunohistochemistry; type: functional, organism-based; parameters: dose 10 mg/kg
[2] = tested on: Mus musculus; assay: Neuroprotective activity in C57BL/6 mouse acute MPTP-induced Parkinson's disease model assessed as increase in GAP-43 expression in brain at 10 mg/kg, ip administered for 1 week prior to MPTP challenge by immunohistochemistry; type: functional, organism-based; parameters: dose 10 mg/kg
[3] = tested on: Mus musculus; assay: Toxicity in C57BL/6 mouse assessed as faster drop time at 10 mg/kg, ip by pole test; type: organism-based; parameters: dose 10 mg/kg, route intraperitoneal; conditions: in vivo
[4] = tested on: Mus musculus; assay: Neuroprotective activity in C57BL/6 mouse sub-acute MPTP-induced parkinson's disease model assessed as bewilderment at 10 mg/kg, ip administered for 1 week prior to MPTP challenge by pole test relative to untreated control; type: functional, organism-based; parameters: dose 10 mg/kg
[5] = tested on: Mus musculus; assay: Neuroprotective activity in C57BL/6 mouse sub-acute MPTP-induced parkinson's disease model assessed as latency time at 10 mg/kg, ip administered for 1 week prior to MPTP challenge by open field test relative to vehicle-treated control; type: functional; conditions: route intraperitoneal
[6] = tested on: Mus musculus; assay: Neuroprotective activity in C57BL/6 mouse acute MPTP-induced parkinson's disease model assessed as preservation of neurological behavioural changes at 10 mg/kg, ip administered for 1 week prior to MPTP challenge measured for 3 mins by open field test relative to vehicle-treated control; type: functional, organism-based; parameters: dose 10 mg/kg
[7] = tested on: Mus musculus; assay: Toxicity in C57BL/6 mouse assessed as change in body weight at 10 mg/kg, ip; type: organism-based; parameters: dose 10 mg/kg, route intraperitoneal; conditions: in vivo
[8] = tested on: Mus musculus; assay: Antiparkinsonian activity in C57BL/6 mouse sub-acute MPTP-induced parkinson's disease model assessed as reduction in MPTP-induced change in body weight at 10 mg/kg, ip administered for 1 week prior to MPTP challenge relative to control; type: functional, organism-based; parameters: dose 10 mg/kg
[9] = tested on: Mus musculus; assay: Antiparkinsonian activity in C57BL/6 mouse acute MPTP-induced parkinson's disease model assessed as reduction in MPTP-induced change in body weight at 10 mg/kg, ip administered for 1 week prior to MPTP challenge relative to control; type: functional, organism-based; parameters: dose 10 mg/kg
[10] = tested on: Mus musculus; assay: Antiapoptotic activity against C57BL/6 mouse sub-acute MPTP-induced parkinson's disease model assessed as protection against neuronal functional disruption at 10 mg/kg, ip administered for 1 week prior to MPTP challenge by golgi staining-based microscopic analysis relative to untreated control; type: organism-based; parameters: dose 10 mg/kg
[11] = tested on: Mus musculus; assay: Antiapoptotic activity against DA neurons in C57BL/6 mouse acute MPTP-induced parkinson's disease model assessed as protection against neuronal functional disruption at 10 mg/kg, ip administered for 1 week prior to MPTP challenge by golgi staining-based microscopic analysis relative to untreated control; type: organism-based; parameters: dose 10 mg/kg
[12] = tested on: Mus musculus; assay: Toxicity in C57BL/6 mouse assessed as Bcl2 expression in brain at 10 mg/kg, ip measured after 8 days by immunohistochemistry; type: organism-based; parameters: dose 10 mg/kg, route intraperitoneal; conditions: in vivo, 192 h
[13] = tested on: Mus musculus; assay: Antiapoptotic activity against DA neurons in C57BL/6 mouse acute MPTP-induced parkinson's disease model assessed as increase in Bcl2 expression at 10 mg/kg, ip administered for 1 week prior to MPTP challenge measured after 8 days by immunohistochemistry relative to untreated control; type: functional, organism-based; parameters: dose 10 mg/kg
[14] = tested on: Mus musculus; assay: Antiapoptotic activity against DA neurons in C57BL/6 mouse sub-acute MPTP-induced parkinson's disease model assessed as increase in Bcl2 expression at 10 mg/kg, ip administered for 1 week prior to MPTP challenge measured after 8 days by immunohistochemistry relative to untreated control; type: functional, organism-based; parameters: dose 10 mg/kg
[15] = tested on: Mus musculus; assay: Toxicity in C57BL/6 mouse assessed as Bax expression in brain at 10 mg/kg, ip measured after 8 days by immunohistochemistry; type: organism-based; parameters: dose 10 mg/kg, route intraperitoneal; conditions: in vivo, 192 h
[16] = tested on: Mus musculus; assay: Antiapoptotic activity against DA neurons in C57BL/6 mouse sub-acute MPTP-induced parkinson's disease model assessed as reduction in Bax expression at 10 mg/kg, ip administered for 1 week prior to MPTP challenge measured after 8 days by immunohistochemistry relative to untreated control; type: functional, organism-based; parameters: dose 10 mg/kg
[17] = tested on: Mus musculus; assay: Antiinflammatory activity against C57BL/6 mouse sub-acute MPTP-induced parkinson's disease model assessed as reduction in cytosolic GFAP localization in brain at 10 mg/kg, ip administered for 1 week prior to MPTP challenge by immunohistochemistry relative to untreated control; type: functional, organism-based; parameters: dose 10 mg/kg
[18] = tested on: Mus musculus; assay: Neurotoxicity in C57BL/6 mouse assessed as cytosolic GFAP localization in brain at 10 mg/kg, ip by immunohistochemistry; type: toxicity, organism-based; parameters: dose 10 mg/kg, route intraperitoneal; conditions: in vivo
[19] = tested on: Mus musculus; assay: Antiapoptotic activity against DA neurons in C57BL/6 mouse acute MPTP-induced parkinson's disease model assessed as reduction in Bax expression at 10 mg/kg, ip administered for 1 week prior to MPTP challenge measured after 8 days by immunohistochemistry relative to untreated control; type: functional, organism-based; parameters: dose 10 mg/kg
[20] = tested on: Mus musculus; assay: Neurotoxicity in C57BL/6 mouse assessed as Nrf2 localization in brain at 10 mg/kg, ip by immunohistochemistry; type: toxicity, organism-based; parameters: dose 10 mg/kg, route intraperitoneal; conditions: in vivo
[21] = tested on: Mus musculus; assay: Antiinflammatory activity against C57BL/6 mouse acute MPTP-induced parkinson's disease model assessed as reduction in cytosolic GFAP localization in brain at 10 mg/kg, ip administered for 1 week prior to MPTP challenge by immunohistochemistry relative to untreated control; type: functional, organism-based; parameters: dose 10 mg/kg
[22] = tested on: Mus musculus; assay: Antiinflammatory activity against C57BL/6 mouse sub-acute MPTP-induced parkinson's disease model assessed as increase in Nrf2 localization in brain at 10 mg/kg, ip administered for 1 week prior to MPTP challenge by immunohistochemistry relative to untreated control; type: functional, organism-based; parameters: dose 10 mg/kg
[23] = tested on: Mus musculus; assay: Antiinflammatory activity against C57BL/6 mouse acute MPTP-induced parkinson's disease model assessed as increase in Nrf2 localization in brain at 10 mg/kg, ip administered for 1 week prior to MPTP challenge by immunohistochemistry relative to untreated control; type: functional, organism-based; parameters: dose 10 mg/kg
[24] = tested on: Mus musculus; assay: Neurotoxicity in C57BL/6 mouse assessed as nitrotyrosine localization in substantia nigra pars compacta at 10 mg/kg, ip by immunohistochemistry; type: toxicity, organism-based; parameters: dose 10 mg/kg, route intraperitoneal; conditions: in vivo
[25] = organism: Mus musculus; assay: Antiinflammatory activity against C57BL/6 mouse sub-acute MPTP-induced parkinson's disease model assessed as reduction in nitrotyrosine localization in substantia nigra pars compacta prior to MPTP challenge by immunohistochemistry relative to untreated control; type: functional, organism-based
[26] = tested on: Mus musculus; assay: Neurotoxicity in C57BL/6 mouse assessed as IL-1beta localization in brain at 10 mg/kg, ip measured after 8 days by immunohistochemistry; type: toxicity, organism-based; parameters: dose 10 mg/kg, route intraperitoneal; conditions: in vivo, 192 h
[27] = tested on: Mus musculus; assay: Antiinflammatory activity against C57BL/6 mouse acute MPTP-induced parkinson's disease model assessed as reduction in nitrotyrosine localization in substantia nigra pars compacta at 10 mg/kg, ip administered for 1 week prior to MPTP challenge by immunohistochemistry relative to untreated control; type: functional, organism-based; parameters: dose 10 mg/kg
[28] = tested on: Mus musculus; assay: Antiinflammatory activity against C57BL/6 mouse sub-acute MPTP-induced parkinson's disease model assessed as reduction in IL-1beta localization in brain at 10 mg/kg, ip administered for 1 week prior to MPTP challenge measured after 8 days by immunohistochemistry relative to untreated control; type: functional, organism-based; parameters: dose 10 mg/kg
[29] = tested on: Mus musculus; assay: Antiinflammatory activity against C57BL/6 mouse acute MPTP-induced parkinson's disease model assessed as reduction in IL-1beta localization in brain at 10 mg/kg, ip administered for 1 week prior to MPTP challenge measured after 8 days by immunohistochemistry relative to untreated control; type: functional, organism-based; parameters: dose 10 mg/kg
[30] = tested on: Mus musculus; assay: Neurotoxicity in C57BL/6 mouse assessed as TH protein expression in striatum at 10 mg/kg, ip measured after 8 days by immunohistochemistry; type: toxicity, organism-based; parameters: dose 10 mg/kg, route intraperitoneal; conditions: in vivo, 192 h
[31] = tested on: Mus musculus; assay: Neuroprotective activity in C57BL/6 mouse sub-acute MPTP-induced parkinson's disease model assessed as increase in TH protein expression in striatum at 10 mg/kg, ip administered for 1 week prior to MPTP challenge measured after 8 days by immunohistochemistry relative to untreated control; type: functional, organism-based; parameters: dose 10 mg/kg
[32] = tested on: Mus musculus; assay: Neurotoxicity in C57BL/6 mouse assessed as reduction of DA transporter expression in substantia nigra at 10 mg/kg, ip by immunohistochemistry; type: toxicity, organism-based; parameters: dose 10 mg/kg, route intraperitoneal; conditions: in vivo
[33] = tested on: Mus musculus; assay: Neuroprotective activity in C57BL/6 mouse acute MPTP-induced parkinson's disease model assessed as increase in TH protein expression in striatum at 10 mg/kg, ip administered for 1 week prior to MPTP challenge measured after 8 days by immunohistochemistry relative to untreated control; type: functional, organism-based; parameters: dose 10 mg/kg
[34] = tested on: Mus musculus; assay: Neuroprotective activity in C57BL/6 mouse sub-acute MPTP-induced parkinson's disease model assessed as prevention of loss of DA transporter expression in substantia nigra at 10 mg/kg, ip administered for 1 week prior to MPTP challenge by immunohistochemistry; type: functional, organism-based; parameters: dose 10 mg/kg
[35] = tested on: Mus musculus; assay: Neuroprotective activity in C57BL/6 mouse sub-acute MPTP-induced parkinson's disease model assessed as increase in BDNF expression in brain at 10 mg/kg, ip administered for 1 week prior to MPTP challenge by immunohistochemistry; type: functional, organism-based; parameters: dose 10 mg/kg
[36] = tested on: Mus musculus; assay: Neuroprotective activity in C57BL/6 mouse acute MPTP-induced parkinson's disease model assessed as prevention of loss of DA transporter expression in substantia nigra at 10 mg/kg, ip administered for 1 week prior to MPTP challenge by immunohistochemistry; type: functional, organism-based; parameters: dose 10 mg/kg
[37] = tested on: Mus musculus; assay: Neurotoxicity in C57BL/6 mouse assessed as basal NGF expression in brain at 10 mg/kg, ip by immunohistochemistry; type: toxicity, organism-based; parameters: dose 10 mg/kg, route intraperitoneal; conditions: in vivo
[38] = tested on: Mus musculus; assay: Neuroprotective activity in C57BL/6 mouse acute MPTP-induced parkinson's disease model assessed as increase in BDNF expression in brain at 10 mg/kg, ip administered for 1 week prior to MPTP challenge by immunohistochemistry; type: functional, organism-based; parameters: dose 10 mg/kg
[39] = tested on: Mus musculus; assay: Neuroprotective activity in C57BL/6 mouse sub-acute MPTP-induced parkinson's disease model assessed as increase in NGF expression in brain at 10 mg/kg, ip administered for 1 week prior to MPTP challenge by immunohistochemistry; type: functional, organism-based; parameters: dose 10 mg/kg
[40] = tested on: Mus musculus; assay: Neuroprotective activity in C57BL/6 mouse acute MPTP-induced parkinson's disease model assessed as increase in NGF expression in brain at 10 mg/kg, ip administered for 1 week prior to MPTP challenge by immunohistochemistry; type: functional, organism-based; parameters: dose 10 mg/kg
[41] = tested on: Mus musculus; assay: Neurotoxicity in C57BL/6 mouse assessed as basal GAP-43 expression in brain at 10 mg/kg, ip by immunohistochemistry; type: toxicity, organism-based; parameters: dose 10 mg/kg, route intraperitoneal; conditions: in vivo

C[S@@+]([O-])CCCC/C(=N/OS(=O)(=O)O)S[C@@H]1O[C@H](CO)[C@@H](O)[C@H](O)[C@H]1O (racemic)
Activity [1]: Active
Activity [2]: Active
Activity [3]: Non-toxic
Activity [4]: Active
Time [5]: 0 min
Activity [6]: Active
Activity [7]: Non-toxic
Activity [8]: Active
Activity [9]: Active
Activity [10]: Active
Activity [11]: Active
Activity [12]: Non-toxic
Activity [13]: Active
Activity [14]: Active
Activity [15]: Non-toxic
Activity [16]: Active
Activity [17]: Active
Activity [18]: Non-toxic
Activity [19]: Active
Activity [20]: Non-toxic
Activity [21]: Active
Activity [22]: Active
Activity [23]: Active
Activity [24]: Non-toxic
Activity [25]: Active
Activity [26]: Non-toxic
Activity [27]: Active
Activity [28]: Active
Activity [29]: Active
Activity [30]: Non-toxic
Activity [31]: Active
Activity [32]: Non-toxic
Activity [33]: Active
Activity [34]: Active
Activity [35]: Active
Activity [36]: Active
Activity [37]: Non-toxic
Activity [38]: Active
Activity [39]: Active
Activity [40]: Active
Activity [41]: Non-toxic
